Where two headings read alike, the source gives them in different places.
Legend:
[1] = system: SK-MEL-2 human melanoma cells; experiment: 7-day CellTiter-Glo growth assay with binimetinib combination and synergy analysis; assay type: cell-based; details: SK-MEL-2, 168 h
Description: SK-MEL-2 human melanoma cells were obtained from American Type Culture Collection and maintained in DMEM+10% FBS+1% penicillin/streptomycin. All cells were maintained in a humidified incubator at 37° C. with 5% carbon dioxide (CO2). […] Plates were removed from the incubator and equilibrated at room temperature for 15 minutes. Then, 100 μL of CellTiter-Glo (CTG) reagent was added into each well to be detected (at 1:1 to culture medium). The plates were kept at room temperature for 30 minutes followed by reading on a plate reader. […] Highest single agent (HSA), Bliss, and Loewe synergy models were assessed and utilized to find the most synergistic area score, where scores >10 indicate that the interaction between the two drugs is likely to be synergistic.

[2] = plasma exposure in mice bearing A-375 tumors; assay type: in vivo; details: athymic nude, mouse, 15-60 mg/kg PO QD, free base, 24-hour period following the last dose, read-out: systemic plasma exposures (AUClast)
[3] = plasma exposure in mice bearing BxPC-3 and WM3629 xenografts; assay type: in vivo; details: athymic nude, mouse, po, sulfate salt form, 24-hour period following the last dose, read-out: systemic plasma exposures (AUClast)
[4] = system: SK-MEL-2 (NRAS Q61R mutant) melanoma xenograft; experiment: SK-MEL-2 melanoma xenograft, Compound 1 with binimetinib; assay type: in vivo, mouse
[5] = system: WM3629 (NRAS mutant, Class III BRAF mutant) melanoma xenograft; experiment: WM3629 melanoma xenograft, compound 1 with binimetinib BID (Example 6); assay type: in vivo, mouse
[6] = system: A-375 (Class I BRAF V600E) melanoma xenograft; details: 60 mg/kg QD; 8 of 9 animals
[7] = mouse, in vivo
[8] = system: A-375, BxPC-3, WM3629 xenografts; details: doses up to 60 mg/kg per day
[9] = mouse, in vivo, po
Description: For routine monitoring, all study animals were monitored for not only tumor growth but also any abnormalities of behavior and appearance such as mobility, food and water consumption, body weight, eye appearance, and any other abnormal observations. Any mortality and/or abnormal clinical signs were recorded. Body weights of all animals were measured and recorded every other day throughout the study. The measurement of tumor size was conducted with calipers and recorded three times during the first week and twice weekly during the second and third weeks. The TV (mm^3) was estimated using the formula: TV=a×b^2/2, where “a” and “b” are long and short diameters of a tumor, respectively.

[10] = system: NCI-H2405 (Class II BRAF mutant) NSCLC xenograft
pERK in A-375 cells = experiment: cells; details: Homo sapiens, A-375, 1 h, read-out: pERK EC50
pERK in BxPC-3 cells = experiment: cells; details: Homo sapiens, BXPC-3, 1 h, read-out: pERK EC50
pERK in OV-90 cells = experiment: cells; details: Homo sapiens, OV-90, 1 h, read-out: pERK EC50
pERK in NCI-H2405 cells = experiment: cells; details: Homo sapiens, NCI-H2405, 1 h, read-out: pERK EC50
pERK in WM3629 cells = experiment: cells; details: Homo sapiens, WM3629, 1 h, read-out: pERK EC50
pERK in CAL-12T cells = experiment: cells; details: Homo sapiens, 1 h, read-out: pERK EC50
pERK in MIA PaCa-2 cells = experiment: cells; details: Homo sapiens, MIA PaCa-2, 1 h, read-out: pERK EC50
pERK in CHL-1 cells = experiment: cells; details: Homo sapiens, CHL-1, 1 h, read-out: pERK EC50
pERK in COLO 800 cells = experiment: cells; details: Homo sapiens
pERK in Hs 294T cells = experiment: cells; details: Homo sapiens
pERK in SK-MEL-28 cells = experiment: cells; details: Homo sapiens
pERK in HMV-II cells = experiment: cells
pERK in SK-MEL-30 cells = experiment: cells; details: Homo sapiens
pERK in IPC-298 cells = experiment: cells; details: Homo sapiens
pERK in SK-MEL-2 cells = experiment: cells; details: Homo sapiens
pERK in AM-38 cells = experiment: cells; details: Homo sapiens
pERK in DBTRG-05MG cells = experiment: cells; details: Homo sapiens
pERK in 8505C cells = experiment: cells; details: Homo sapiens
pERK in IHH-4 cells = experiment: cells
pERK in NCI-H2087 cells = experiment: cells; details: Homo sapiens
pERK in NCI-H1666 cells = experiment: cells; details: Homo sapiens
pERK in Calu-6 cells = experiment: cells; details: Homo sapiens
pERK in HCC1195 cells = experiment: cells
in vivo = details: athymic nude, mouse, plasma, oral
[11] = plasma exposure in SK-MEL-2 xenograft study; details: mouse, oral
[12] = tolerability / body weight in A-375 xenograft study
Description: Mean tumor volumes and body weights are plotted, respectively; error bars denote standard error of mean. Percent change in tumor volume was calculated using the following formula: (TVf−TV0)/TV0×100%; where TVf=final tumor volume (at end of treatment) and TV0=initial tumor volume (at beginning of treatment).

[13] = plasma exposure in WM3629 BID combination study (Example 6); details: athymic BALB/c nude, mouse, oral, 3 mg/kg
[14] = system: WM3629 (Class III BRAF mutant) melanoma xenograft; experiment: WM3629 melanoma xenograft, Compound 1 with binimetinib QD (Example 3C); assay type: in vivo, mouse; details: 10 mg/kg QD single agent, 14 days
Excerpt: Mice were assigned to respective groups based on their starting tumor volume and body weight such that the average values were the same for each treatment group.

[15] = 3 mg/kg BID PO 14 days monotherapy

Compound: Cc1ccc(NC(=O)N2CC[C@@H](CC(F)(F)F)C2)cc1-c1cc(N[C@H](C)CO)nc(N2CCOCC2)c1 [Compound 1, (S)-N-(3-(2-(((R)-1-hydroxypropan-2-yl)amino)-6-morpholinopyridin-4-yl)-4-methylphenyl)-3-(2,2,2-trifluoroethyl)pyrrolidine-1-carboxamide]
- EC50 ([1]; read-out: Compound 1 7-Day CTG EC50, SK-MEL-2, binimetinib 0 nM (single agent, DMSO control)): 164 nM
- EC50 ([1]; read-out: Compound 1 7-Day CTG EC50, SK-MEL-2, binimetinib 2 nM): 108 nM
- EC50 ([1]; read-out: Compound 1 7-Day CTG EC50, SK-MEL-2, binimetinib 7.8 nM): 106 nM
- EC50 ([1]; read-out: Compound 1 7-Day CTG EC50, SK-MEL-2, binimetinib 31.3 nM): 65 nM
- EC50 ([1]; read-out: Compound 1 7-Day CTG EC50, SK-MEL-2, binimetinib 125 nM): 39 nM
- EC50 ([1]; read-out: Compound 1 7-Day CTG EC50, SK-MEL-2, binimetinib 500 nM): 12 nM
- AUC(0-t) [2]: 11900 to 156000 ng·h/mL
- AUC(0-t) ([3]; dosed orally BID (1.5-10 mg/kg)): 4030 to 42100 ng·h/mL
- AUC(0-t) ([3]; dosed orally QD (3-20 mg/kg)): 5200 to 53700 ng·h/mL
- average TGI ([4]; 10 mg/kg BID 28 days): 13%
- average TGI ([4]; 30 mg/kg BID 28 days): 135%
- ΔT/ΔC ([5]; 1.5 mg/kg BID PO 14 days): 34%
- ΔT/ΔC [5, 15]: 21%
- animals exhibiting tumor regressions [6]: 89%
- tolerability (on-treatment body weight changes) [7]: well tolerated
- tolerability [8]: well-tolerated
- tolerability [9]: well-tolerated
- ΔT/ΔC ([10]; 10 mg/kg BID PO 21 days): 15%
- ΔT/ΔC ([10]; 15 mg/kg BID PO 21 days): −7%
- EC50 (pERK in A-375 cells): 67.7 nM
- EC50 (pERK in BxPC-3 cells): 50.7 nM
- EC50 (pERK in OV-90 cells): 26 nM
- EC50 (pERK in NCI-H2405 cells): 10.1 nM
- EC50 (pERK in WM3629 cells): 8.8 nM
- EC50 (pERK in CAL-12T cells): 18.4 nM
- EC50 (pERK in MIA PaCa-2 cells): 685 nM
- EC50 (pERK in CHL-1 cells): 580 nM
- EC50 (pERK in COLO 800 cells): 99.5 nM
- EC50 (pERK in Hs 294T cells): 76.9 nM
- EC50 (pERK in SK-MEL-28 cells): 107 nM
- EC50 (pERK in HMV-II cells): 44.6 nM
- EC50 (pERK in SK-MEL-30 cells): 95.9 nM
- EC50 (pERK in IPC-298 cells): 267 nM
- EC50 (pERK in SK-MEL-2 cells): 139 nM
- EC50 (pERK in AM-38 cells): 41.4 nM
- EC50 (pERK in DBTRG-05MG cells): 60.5 nM
- EC50 (pERK in 8505C cells): 77.1 nM
- EC50 (pERK in IHH-4 cells): 53.1 nM
- EC50 (pERK in NCI-H2087 cells): 95.4 nM
- EC50 (pERK in NCI-H1666 cells): 32.9 nM
- EC50 (pERK in Calu-6 cells): 200 nM
- EC50 (pERK in HCC1195 cells): 83.3 nM
- AUC(0-t) (in vivo; 30 mg/kg): 31100 to 123000 ng·h/mL
- AUC(0-t) ([11]; 30 mg/kg): 29900 to 96100 ng·h/mL
- average weight loss ([12]; 60 mg/kg QD): 5.6%
- weight loss of one animal during the course of treatment ([12]; 60 mg/kg cohort, recovered by end of study): > 10%
- AUC(0-t) [13]: 2530 to 6750 ng·h/mL

Compound: Cn1cnc2c(F)c(Nc3ccc(Br)cc3F)c(C(=O)NOCCO)cc21 [binimetinib, reference compound]
- inhibition of tumor growth [14]: did not lead to significant inhibition of tumor growth
- tumor growth inhibition ([4]; 3 mg/kg BID single agent, 28 days): 23%
- TGI [5, 15]: 37%
- ΔT/ΔC [5, 15]: 63%
- Final Tumor Volume ([5]; 3 mg/kg BID PO 14 days monotherapy, mean ± SEM): 910 ± 69 mm^3
- AUC(0-t) (in vivo; 10 mg/kg): 11000 to 26700 ng·h/mL
- AUC(0-t) ([11]; 3 mg/kg): 7500 to 10100 ng·h/mL
- AUC(0-t) [13]: 5400 to 5730 ng·h/mL

Source: US11918587B2, “Treatment of cancer with a RAF inhibitor” (Kinnate Biopharma Inc., priority 2021, dated 2024)
